In the test the target is T1, wild-type HIV-1 protease (Human immunodeficiency virus type 1 group M subtype B, UniProt P04585).
T1 construct: Escherichia coli expressed wild-type HIV-1 protease protein
As to the kind of experiment: Assay for Inhibition of Microbial Expressed HIV Protease (peptide substrate cleavage, LC-MS/MS readout). Type of test: biochemical. The note with it: E. coli expressed wild-type HIV-1 protease, mean of at least two independent experiments, read-out: HIV Pr Enzyme HIV1 PR IC50. In a few lines:
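Cleavage of Val-Ser-Gln-Asn-(β-naphthyl)Ala-Pro-Ile-Val (400 μM) by recombinant HIV-1 protease ([…]) ran 1 h at 30 °C after a 30 min room-temperature inhibitor preincubation in 50 mM sodium acetate pH 5.5. Product peak areas by LC-MS/MS gave inhibition; values average at least two independent runs.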

Molecules are shown by their SMILES.

What is called IC50 is the concentration at which inhibition is half-maximal. As for `C[C@H](c1cccc(C(=O)N2Cc3cncnc3C2)c1)N1C(=N)NC(c2ccc(F)cc2)(c2ccc(F)cc2)C1=O` [Compound 198, 3-{(1R)-1-[3-(5,7-dihydro-6H-pyrrolo[3,4-d]pyrimidin-6-ylcarbonyl)phenyl]ethyl}-5,5-bis(4-fluorophenyl)-2-iminoimidazolidin-4-one], the half-maximal inhibitory concentration (IC50) was determined as 5.36 nM.
In the case of `COC(=O)N1CCN(C(=O)c2cccc([C@@H](C)N3C(=N)N[C@](CC(C)C)(c4ccccc4)C3=O)c2)CC1` [Compound 279, methyl 4-[(3-{(1R)-1-[2-imino-4-(2-methylpropyl)-5-oxo-4-phenylimidazolidin-1-yl]ethyl}phenyl)carbonyl] piperazine-1-carboxylate], the IC50 worked out at 30.5 nM.
As for `N=C1N[C@](CCCC(F)(F)F)(c2ccc(F)cc2)C(=O)N1Cc1ccc(C(F)(F)F)c(C(=O)N2CCn3cnnc3C2)c1` [Compound 98, (5R)-3-[3-(5,6-dihydro[1,2,4]triazolo[4,3-a]pyrazin-7(8H)-ylcarbonyl)-4-(trifluoromethyl)benzyl]-5-(4-fluorophenyl)-2-imino-5-(4,4,4-trifluorobutyl)imidazolidin-4-one], the figure is 20.7 nM; as for `CC(C)CC1(c2cccc(F)c2)NC(=N)N(Cc2cccc(C(=O)N3Cc4ccccc4C3)c2)C1=O` (stereo not drawn) [Compound 264, 3-[3-(1,3-dihydro-2H-isoindol-2-ylcarbonyl)benzyl]-5-(3-fluorophenyl)-2-imino-5-(2-methylpropyl) imidazolidin-4-one], 24.8 nM; as for `N=C1N[C@@](c2ccc(F)cc2)(C2CCOCC2)C(=O)N1C1CCCc2ccc(C(=O)N3Cc4nccnc4C3)cc21` (stereo in doubt) [Compound 130, (5R)-3-[(1R)-7-(5,7-dihydro-6H-pyrrolo[3,4-b]pyrazin-6-ylcarbonyl)-1,2,3,4-tetrahydronaphthalen-1-yl]-5-(4-fluorophenyl)-2-imino-5-(tetrahydro-2H-pyran-4-yl)imidazolidin-4-one], 80.5 nM.
As for `N=C1N[C@](CCCC(F)(F)F)(c2ccc(F)cc2)C(=O)N1Cc1ccc(C(F)(F)F)c(C(=O)N2CCN(c3cccnc3)CC2)c1` [Compound 108, (5R)-5-(4-fluorophenyl)-2-imino-3-{3-[(4-pyridin-3-ylpiperazin-1-yl)carbonyl]-4-(trifluoromethyl)-benzyl}-5-(4,4,4-trifluorobutyl)-imidazolidin-4-one], the figure is 26.1 nM; as for `COCCn1cc(-c2ncc3c(n2)CN(C(=O)c2cc(CN4C(=N)N[C@](CCCC(F)(F)F)(c5ccc(F)cc5)C4=O)ccc2C(F)(F)F)C3)cn1` [Compound 20, (5R)-5-(4-fluorophenyl)-2-imino-3-[3-({2-[1-(2-methoxyethyl)-1H-pyrazol-4-yl]-5,7-dihydro-6H-pyrrolo[3,4-d]pyrimidin-6-yl}carbonyl)-4-(trifluoromethyl)benzyl]-5-(4,4,4-trifluorobutyl)imidazolidin-4-one], 2.3 nM; as for `N=C1N[C@](CCCC(F)(F)F)(c2ccc(F)cc2)C(=O)N1Cc1ccc(C(F)(F)F)c(C(=O)N2CCN(c3ccccc3)CC2)c1` [Compound 119, (5R)-5-(4-fluorophenyl)-2-imino-3-{3-[(4-phenylpiperazin-1-yl)carbonyl]-4-(trifluoromethyl)-benzyl}-5-(4,4,4-trifluorobutyl)-imidazolidin-4-one], 42.1 nM.
For the compound `N=C1NC(c2ccccc2)(c2ccccc2)C(=O)N1Cc1cc(C(=O)N2Cc3ccccc3C2)ccn1` [Compound 396, 3-{[4-(1,3-dihydro-2H-isoindol-2-ylcarbonyl)pyridin-2-yl]methyl}-2-imino-5,5-diphenylimidazolidin-4-one], the IC50 was 16.7 nM.
On to `CC(=O)N1CCN(C(=O)c2cccc(CN3C(=N)NC(c4ccc(F)cc4)(c4ccc(F)cc4)C3=O)c2)CC1` [Compound 335, 3-{3-[(4-acetylpiperazin-1-yl)carbonyl]benzyl}-5,5-bis(4-fluorophenyl)-2-iminoimidazolidin-4-one], for which the IC50 was found to be 70.5 nM.
As for `CC(C)CCC1(c2ccc(F)cc2)NC(=N)N(Cc2ccc(C(F)(F)F)c(C(=O)N3C[C@H]4OCc5cnnn5[C@H]4C3)c2)C1=O` (stereo partly drawn) [Compound 169], the figure is 38.6 nM; as for `CC(C)CC[C@]1(c2ccccc2)NC(=N)N(Cc2ccc(C(F)(F)F)c(C(=O)N3Cc4nccnc4C3)c2)C1=O` [Compound 30, (5R)-3-[3-(5,7-dihydro-6H-pyrrolo[3,4-b]pyrazin-6-ylcarbonyl)-4-(trifluoromethyl)-benzyl]-2-iirrino-5-(3-methylbutyl)-5-phenylimidazolidin-4-one], 3.08 nM.
As for `N#Cc1ncc2c(n1)CN(C(=O)c1cc(CN3C(=N)N[C@](CCCC(F)(F)F)(c4ccc(F)cc4)C3=O)ccc1C(F)(F)F)C2` [Compound 58, 6-{[5-{[(4R)-4-(4-fluorophenyl)-2-imino-5-oxo-4-(4,4,4-trifluorobutyl)imidazolidin-1-yl]methyl}-2-(trifluoromethyl)-phenyl]carbonyl}-6,7-dihydro-5H-pyrrolo[3,4-d] pyrimidine-2-carbonitrile], the figure is 6.43 nM; as for `N=C1N[C@](CCCC(F)(F)F)(c2ccc(F)cc2)C(=O)N1Cc1ccc(C(F)(F)F)c(C(=O)N2Cc3cnc(-c4cnn(CCN5CCOCC5)c4)nc3C2)c1` [Compound 33, (5R)-5-(4-fluorophenyl)-2-imino-3-[3-({2-[1-(2-morpholin-4-ylethyl)-1H-pyrazol-4-yl]-5,7-dihydro-6H-pyrrolo[3,4-d]pyrimidin-6-yl}carbonyl)-4-(trifluoromethyl)-benzyl]-5-(4,4,4-trifluorobutyl)-imidazolidin-4-one], 3.26 nM.
As for `N=C1NC(c2ccccc2)(c2ccc(-c3ccccc3)cc2)C(=O)N1Cc1cccc(C(=O)N2Cc3nccnc3C2)c1` (stereo not drawn) [Compound 192, 5-biphenyl-4-yl-3-[3-(5,7-dihydro-6H-pyrrolo[3,4-b]pyrazin-6-ylcarbonyl)benzyl]-2-imino-5-phenylimidazolidin-4-one], the figure is 44.2 nM.
Consider `CN(C)C(=O)c1nc2n(c1Cl)CCN(C(=O)c1cccc(CN3C(=N)NC(c4ccccc4)(c4ccccc4)C3=O)c1)C2` [Compound 327, 3-chloro-7-({3-[(2-imino-5-oxo-4,4-diphenylimidazolidin-1-yl)methyl]phenyl}carbonyl)-N,N-dimethyl-5,6,7,8-tetrahydroimidazo[1,2-a]pyrazine-2-carboxamide], for which the IC50 worked out at 64.2 nM.
As for `CC(C)C[C@]1(c2ccccc2)NC(=N)N(Cc2cnc(C(F)(F)F)c(C(=O)N3Cc4nccnc4C3)c2)C1=O` [Compound 390, (5R)-3-{[5-(5,7-dihydro-6H-pyrrolo[3,4-b]pyrazin-6-ylcarbonyl)-6-(trifluoromethyl)pyridin-3-yl]methyl}-2-imino-5-(2-methylpropyl)-5-phenylimidazolidin-4-one], the figure is 8.45 nM; as for `CC(C)CCC(c1ccc(C(F)(F)F)c(C(=O)N2CCn3c(nnc3C(F)(F)F)C2)c1)N1C(=N)N[C@](CCC(C)C)(c2ccccc2)C1=O` (stereo partly drawn) [Compound 23, (5R)-2-imino-5-(3-methylbutyl)-3-{4-methyl-1-[4-(trifluoromethyl)-3-{[3-(trifluoromethyl)-5,6-dihydro[1,2,4]triazolo[4,3-a]pyrazin-7(8H)-yl]carbonyl}phenyl]pentyl}-5-phenylimidazolidin-4-one], 2.38 nM.
